From EP2518054A1, “AMIDE COMPOUND” (Takeda Pharmaceutical Company Limited, priority 2009, dated 2011)

What was measured:
human GPR52 = molecular target: T1, human GPR52 (Homo sapiens, UniProt Q9Y2T5); experiment: Increase of intracellular cAMP concentration in human GPR52-expressing CHO cell (AlphaScreen cAMP assay); format: cell-based; settings: human GPR52-expressing CHO(dhfr-) cells; for activity at 1 µM: CHO, 1µM test compound, 100% = cAMP with 1 µM Reference Example 79, 0% = DMSO, 37°C, 30 min, read-out: GPR52 agonist activity (%); for EC50: concentration of the test compound at which it shows 50% activity, read-out: GPR52 agonist activity EC50
T1 construct: expressed in transfected cells; host or cells: CHO(dhfr-) cells
T1 sequence (Q9Y2T5 whole entry): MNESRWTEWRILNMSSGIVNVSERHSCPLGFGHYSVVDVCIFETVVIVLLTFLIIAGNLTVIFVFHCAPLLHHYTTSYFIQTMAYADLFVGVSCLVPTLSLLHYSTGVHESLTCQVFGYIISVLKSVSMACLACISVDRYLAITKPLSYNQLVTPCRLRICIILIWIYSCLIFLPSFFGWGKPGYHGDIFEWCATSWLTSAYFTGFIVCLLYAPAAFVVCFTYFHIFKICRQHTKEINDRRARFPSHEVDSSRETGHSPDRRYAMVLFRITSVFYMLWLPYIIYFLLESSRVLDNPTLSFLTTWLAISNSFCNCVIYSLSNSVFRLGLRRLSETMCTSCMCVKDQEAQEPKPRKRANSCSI
Procedure: Increase of intracellular cAMP concentration in human GPR52-expressing CHO cell
Using OptiPlate-384 (PerkinElmer Inc.), 1×10^4 human GPR52-expressing CHO(dhfr-) cells were incubated together with various concentration(10^-5µM - 10µm) of a test compound in an assay buffer (30 µL, HBSS (containing Ca^2+ and Mg^2+), 0.5% BSA, 100 µM IBMX, 100 µM Ro20-1724, 5 mM HEPES (pH 7.55)) at 37°C for 30 min. Thereafter, according to the protocol of AlphaScreen CAMP Assay Kit (PerkinElmer Inc.), the intracellular cAMP concentration was measured by EnVision (PerkinElmer Inc.). The GPR52 agonist activity was calculated, assuming the intracellular cAMP concentration in the presence of […] N-(2-hydroxyethyl)-3-[2-[3-(trifluoromethyl)benzyl]-1-benzofuran-4-yl]benzamide (Reference Example 79) to be 100% and assuming the intracellular cAMP concentration when DMSO was added instead of the test compound to be 0%.

[1] = test system: methamphetamine-induced locomotor hyperactivity in mice; experiment: Inhibition test of methamphetamine-induced locomotor hyperactivity; format: in vivo; settings: test compound 10 mg/kg body weight orally, male ICR mice; methamphetamine 2 mg/kg s.c. 60 min later; locomotor activity counted over 150 min, versus vehicle group
Procedure: Inhibition test of methamphetamine-induced locomotor hyperactivity
The compound of the present invention can be evaluated by assessing its capacity to inhibit methamphetamine-induced locomotor hyperactivity in mice. The method of Okuyama et al (Life Science, Vol. 65, p. 2109-2125 (1999)) was modified and used for testing the inhibition of methamphetamine-induced locomotor hyperactivity.
Locomotor activity was measured using a 32-channel locomotor activity measurement device MDC-LT (BrainScience Idea Co., Ltd.), which emits infrared beams from the top of a cage (30 x 40 x 20 cm). 6- to 8-Week-old male ICR mice were acclimated for at least 45 min in the measurement cages, and then either test compound (10 mg/kg body weight) dissolved in vehicle (0.5% aqueous methylcellulose solution) or the vehicle alone was orally administered. This oral administration was followed 60 min later by subcutaneous administration of methamphetamine (2 mg/kg body weight).
The number of times the laboratory animals passed through the infrared beams emitted inside the measurement cages in 150 min after administration of the test compound or vehicle was counted to quantify locomotor activity. The methamphetamine-induced locomotor hyperactivity inhibition rate (activity inhibition rate (%)) was calculated by the following equation. Activity inhibition rate (%) = {1-(locomotor activity of test compound treatment group after treatment with methamphetamine÷locomotor activity of vehicle treatment group after treatment with methamphetamine)}x 100 [formula] The results are shown in Table 3

Row | SMILES | activity at 1 µM (human GPR52) [%] | Activity inhibition rate (%) [1] [%] | EC50 (human GPR52) [µM]
1 | Cc1nn(-c2cccc3cc(Cc4cccc(C(F)(F)F)c4)sc23)c(CO)c1C(=O)NCCO [Example 65, N-(2-hydroxyethyl)-5-(hydroxymethyl)-3-methyl-1-[2-[3-(trifluoromethyl)benzyl]-1-benzothiophen-7-yl]-1H-pyrazole-4-carboxamide] | 99 | 51 | 
2 | Cc1nn(-c2ccc(F)c3cc(Cc4cccc(C(F)(F)F)c4)sc23)c(C)c1C(=O)NCC(N)=O [Example 58, N-(2-amino-2-oxoethyl)-1-[4-fluoro-2-[3-(trifluoromethyl)benzyl]-1-benzothiophen-7-yl]-3,5-dimethyl-1H-pyrazole-4-carboxamide] | 92 | 47 | 0.04
3 | Cc1nn(-c2cccc3cc(Cc4cccc(C(F)(F)F)c4)sc23)cc1C(N)=O [Example 17, 3-methyl-1-[2-[3-(trifluoromethyl)benzyl]-1-benzothiophen-7-yl]-1H-pyrazole-4-carboxamide] | 96 | 43 | 0.011
4 | Cc1nn(-c2ccc(F)c3cc(Cc4cc(F)cc(Cl)c4)sc23)c(C)c1C(=O)NCCO [Example 60, 1-[2-(3-chloro-5-fluorobenzyl)-4-fluoro-1-benzothiophen-7-yl]-N-(2-hydroxyethyl)-3,5-dimethyl-1H-pyrazole-4-carboxamide] | 99 |  | 
5 | Cc1cn(-c2cccc3cc(Cc4cccc(C(F)(F)F)c4)sc23)cc1C(=O)NCC(N)=O [Example 12, N-(2-amino-2-oxoethyl)-4-methyl-1-[2-[3-(trifluoromethyl)benzyl]-1-benzothiophen-7-yl]-1H-pyrrole-3-carboxamide] | 107 |  | 
6 | COCCNC(=O)c1c(C)nn(-c2cccc3cc(Cc4cc(F)cc(Cl)c4)sc23)c1C [Example 57, 1-[2-(3-chloro-5-fluorobenzyl)-1-benzothiophen-7-yl]-N-(2-methoxyethyl)-3,5-dimethyl-1H-pyrazole-4-carboxamide] | 96 |  | 
7 | Cc1nn(-c2cccc3sc(Cc4cccc(C(F)(F)F)c4)cc23)c(C)c1C(=O)NCC(N)=O [Example 105, N-(2-amino-2-oxoethyl)-3,5-dimethyl-1-[2-[3-(trifluoromethyl)benzyl]-1-benzothiophen-4-yl]-1H-pyrazole-4-carboxamide] | 94 |  | 
8 | Cc1nn(-c2cccc3cc(Cc4cc(F)cc(F)c4)sc23)c(C)c1C(N)=O [Example 100, 1-[2-(3,5-difluorobenzyl)-1-benzothiophen-7-yl]-3,5-dimethyl-1H-pyrazole-4-carboxamide] | 104 |  | 
9 | Cc1nc(-c2cccc3oc(Cc4cccc(C(F)(F)F)c4)cc23)sc1C(=O)NCCO [Example 46, N-(2-hydroxyethyl)-4-methyl-2-[2-[3-(trifluoromethyl)benzyl]-1-benzofuran-4-yl]-1,3-thiazole-5-carboxamide] | 90 |  | 
10 | Cc1nn(-c2cccc3oc(Cc4cccc(C(F)(F)F)c4)cc23)c(C)c1C(N)=O [Example 76, 3,5-dimethyl-1-[2-[3-(trifluoromethyl)benzyl]-1-benzofuran-4-yl]-1H-pyrazole-4-carboxamide] | 95 |  | 
11 | COCCNC(=O)c1cn(-c2cccc3cc(Cc4cccc(C(F)(F)F)c4)sc23)nc1C [Example 14, N-(2-methoxyethyl)-3-methyl-1-[2-[3-(trifluoromethyl)benzyl]-1-benzothiophen-7-yl]-1H-pyrazole-4-carboxamide] | 87 | 53 | 0.014
12 | Cc1nn(-c2cccc3cc(Cc4cccc(C(F)(F)F)c4)sc23)c(C)c1C(=O)NCCO [Example 52, N-(2-hydroxyethyl)-3,5-dimethyl-1-[2-[3-(trifluoromethyl)benzyl]-1-benzothiophen-7-yl]-1H-pyrazole-4-carboxamide] | 107 |  | 
13 | Cc1cc(C(=O)NCCO)n(-c2cccc3cc(Cc4cccc(C(F)(F)F)c4)sc23)n1 [Example 33, N-(2-hydroxyethyl)-3-methyl-1-[2-[3-(trifluoromethyl)benzyl]-1-benzothiophen-7-yl]-1H-pyrazole-5-carboxamide] | 79 |  | 
14 | Cc1nn(-c2cccc3cc(Cc4cccc(C(F)(F)F)c4)sc23)c(C)c1C(N)=O [Example 54, 3,5-dimethyl-1-[2-[3-(trifluoromethyl)benzyl]-1-benzothiophen-7-yl]-1H-pyrazole-4-carboxamide] | 101 |  | 
15 | Cc1nn(-c2ccc(F)c3cc(Cc4cc(F)cc(Cl)c4)sc23)c(CO)c1C(=O)NCC(N)=O [Example 89, N-(2-amino-2-oxoethyl)-1-[2-(3-chloro-5-fluorobenzyl)-4-fluoro-1-benzothiophen-7-yl]-5-(hydroxymethyl)-3-methyl-1H-pyrazole-4-carboxamide] | 99 |  | 
16 | Cn1nc(-c2cccc3cc(Cc4cccc(C(F)(F)F)c4)sc23)cc1C(=O)NCC(N)=O [Example 110, N-(2-amino-2-oxoethyl)-1-methyl-3-[2-[3-(trifluoromethyl)benzyl]-1-benzothiophen-7-yl]-1H-pyrazole-5-carboxamide] | 94 |  | 
17 | COCCNC(=O)c1c(C)nn(-c2cccc3cc(Cc4cccc(C(F)(F)F)c4)sc23)c1CO [Example 66, 5-(hydroxymethyl)-N-(2-methoxyethyl)-3-methyl-1-[2-[3-(trifluoromethyl)benzyl]-1-benzothiophen-7-yl]-1H-pyrazole-4-carboxamide] | 89 |  | 
18 | Cc1cccc(Cc2cc3cccc(-n4nc(C)c(C(N)=O)c4C)c3s2)c1 [Example 95, 3,5-dimethyl-1-[2-(3-methylbenzyl)-1-benzothiophen-7-yl]-1H-pyrazole-4-carboxamide] | 95 |  | 
19 | Cc1nn(-c2cccc3sc(Cc4cccc(C(F)(F)F)c4)cc23)c(C)c1C(N)=O [Example 104, 3,5-dimethyl-1-[2-[3-(trifluoromethyl)benzyl]-1-benzothiophen-4-yl]-1H-pyrazole-4-carboxamide] | 93 |  | 
20 | Cc1nn(-c2cccc3sc(Cc4cc(F)cc(Cl)c4)cc23)c(C)c1C(=O)NCCO [Example 108, 1-[2-(3-chloro-5-fluorobenzyl)-1-benzothiophen-4-yl]-N-(2-hydroxyethyl)-3,5-dimethyl-1H-pyrazole-4-carboxamide] | 93 |  | 
21 | Cc1nn(-c2cccc3oc(Cc4cccc(C(F)(F)F)c4)cc23)c(C)c1C(=O)NCCO [Example 75, N-(2-hydroxyethyl)-3,5-dimethyl-1-[2-[3-(trifluoromethyl)benzyl]-1-benzofuran-4-yl]-1H-pyrazole-4-carboxamide] | 101 |  | 0.03
22 | Cc1nn(-c2cccc3cc(Cc4cccc(C(F)(F)F)c4)sc23)cc1C(=O)NCCO [Example 15, N-(2-hydroxyethyl)-3-methyl-1-[2-[3-(trifluoromethyl)benzyl]-1-benzothiophen-7-yl]-1H-pyrazole-4-carboxamide] | 102 | 48 | 0.0057
23 | COCc1c(C(=O)NCCO)c(C)nn1-c1cccc2cc(Cc3cccc(C(F)(F)F)c3)sc12 [Example 70, N-(2-hydroxyethyl)-5-(methoxymethyl)-3-methyl-1-[2-[3-(trifluoromethyl)benzyl]-1-benzothiophen-7-yl]-1H-pyrazole-4-carboxamide] | 91 |  | 
24 | NC(=O)CNC(=O)c1cn(-c2cccc3cc(Cc4cccc(C(F)(F)F)c4)sc23)nc1C(F)(F)F [Example 21, N-(2-amino-2-oxoethyl)-3-(trifluoromethyl)-1-[2-[3-(trifluoromethyl)benzyl]-1-benzothiophen-7-yl]-1H-pyrazole-4-carboxamide] | 94 |  | 
25 | COCCNC(=O)c1cnn(-c2cccc3cc(Cc4cccc(C(F)(F)F)c4)sc23)c1C [Example 13, N-(2-methoxyethyl)-5-methyl-1-[2-[3-(trifluoromethyl)benzyl]-1-benzothiophen-7-yl]-1H-pyrazole-4-carboxamide] | 79 |  | 
26 | Cc1nc(-c2cccc3cc(Cc4cccc(C(F)(F)F)c4)sc23)sc1C(=O)NCC(N)=O [Example 37, N-(2-amino-2-oxoethyl)-4-methyl-2-[2-[3-(trifluoromethyl)benzyl]-1-benzothiophen-7-yl]-1,3-thiazole-5-carboxamide] | 97 |  | 
